Entries after “also recorded” stand apart in the source; their conditions may differ.
Key:
Sa.ClpP [1] = target: T1, Sa.ClpP (Staphylococcus aureus, UniProt Q2G036); experiment: Dose-response of beta-casein degradation by Sa.ClpP; type: biochemical, S. aureus; conditions: two-fold dilution series in DMSO, highest concentration 200 µM, densitometry, non-linear fit; three independent experiments; Fig. 4B; read-out: EC50 (effective dose), Sa.ClpP-dependent digestion of beta-casein
T1 construct: Strep-tag (C); made in house; host or cells: E. coli SG1146a (lacks endogenous ClpP)
Experimental: (§1) Beta-casein degradation by Ec.ClpP or Sa.ClpP
(§2) All concentrations are given as final concentrations. Ligands were incubated at 200 µM in […]
(§3) Aliquots were drawn at the
(§4) Gels were run at constant voltage […]
(§5) concentration was 200 µM. The results from densitometric analysis were plotted in Graphpad […]
(§6) Data is represented as mean ± SD of three independent experiments. […]

Sa.ClpP [2] = target: T1, Sa.ClpP; experiment: FtsZ degradation by Sa.ClpP, SDS-PAGE; type: biochemical, S. aureus; conditions: 200 µM, ADEP2 at 10 µM, Sa. FtsZ 4.0 µM, 24 h, SDS-PAGE densitometry, at least three independent experiments, Fig. 4D
From the text: Lastly, we set out to answer to what extent ADEP and other allosteric activators of ClpP resemble the activation process of ClpX. To this end, we set up a biochemical assay and monitored the digestion of FtsZ, an essential protein for cell division, which is the major determinant for the filamentation phenotype induced by ADEP-activated ClpP.[17] […] We performed docking studies of the identified macrocycles into the same pocket where ADEP binds (see ESI ^† for full details).
(§7) Walther et al. Supporting Information
FITC casein degradation rate
(§8) All concentrations are given as final concentrations. Ligands were incubated at 200 µM in the […]
The linear part of the fluorescence curve was used to determine the relative degradation rate. Data analysis was performed by OriginPro […]
as §1, §2, §3, §4, §5
Data is represented as mean ± SD of three independent experiments.
FtsZ degradation by Sa.ClpP […]
at a final concentration of 4.0 µM. […]
casein degradation assay. […]
SD of duplicates of at least two independent experiments. […]
equilibrated Superdex 200 Increase 10/300 GL column (Cytiva). Stabilization of Sa.ClpP in […]

Ec.ClpP [3] = conditions: 200 µM ligand, ClpP 1.0 µM, 24 h at 37 °C, SDS-PAGE densitometry, at least three independent experiments, Fig. 3D
Experimental: presence of E. coli ClpP or S. aureus ClpP (1.0 µM), and bovine beta-casein (Sigma-Aldrich –
catalogue number C6905, 5.0 µM or 3 µM) in Tris HCl buffer (100 mM, pH 7.6) with KCl (100 mM)
or HEPES buffer (100 mM, pH 7) with NaCl (150 mM) at 37 °C. Aliquots were drawn at the
indicated time points, quenched with SDS-loading buffer and heated to 90 °C for 5 min. Beta-
casein digestion was visualized by non-reducing Tris-glycine SDS-PAGE with 12 % acrylamide
and 4 % stacking gel or reducing Bolt 4-12% Bis-Tris Plus gels. Gels were run at constant voltage
(160-200 V) for 60 min and visualized with Coomassie brilliant blue dye. Protein bands were
quantified by densitometry using ImageJ from at least three independent experiments.
A two-fold dilution series in DMSO was performed to keep DMSO content identical. Highest
Prism and a non-linear fit was applied to estimate the EC50. Data is represented as mean ± SD of three independent experiments.

Ec.ClpP [4] = conditions: 200 µM peptide, E. coli ClpP 0.5 µM, FITC-casein 1.8 µM + beta-bovine casein 4.8 µM, Tris HCl 100 mM pH 7.6, KCl 100 mM, 24 h at 37 °C, exc. 483 nm, em 530 nm; duplicates of at least two independent experiments; vs DMSO
Experimental: Next, we screened for enzymatic activation of ClpP to quickly assess the chemical library for binding and understand whether IGF-bearing macrocyclic peptides could modulate ClpP enzymatic function. Modulation of ClpP was assessed using a biochemical assay monitoring the enzymatic function of the protease based on previously reported successes for the identification of allosteric activators of ClpP.[9] […] FITC-casein, a protein labeled with fluorescein to the extent of self-quenching, is a suitable substrate for this assay, as it can only enter the proteolytic core upon apical pore opening and is indirectly a measure for the conformational state of the protease.[2,10] Enzymatic degradation of FITC-casein alleviates self-quenching giving rise to an increased fluorescence intensity and an easy readout for our purpose to identify any ligand that positively modulates the enzymatic activity of recombinant E. coli ClpP (Ec.ClpP).
Ec.ClpP was incubated for 24 h at 37 °C in the presence of a peptide library, or vehicle (DMSO) and fluorescence intensity was measured thereafter (Fig. 2C and S1 ^†). […] This was reproducibly confirmed in three independent experiments (varying the batch of enzyme).

Sa.ClpP [5] = target: T1, Sa.ClpP; experiment: beta-casein degradation by Sa.ClpP, SDS-PAGE; type: biochemical, S. aureus; conditions: ligands at 200 µM, ADEP2 at 10 µM, ClpP 1.0 µM, 24 h at 37 °C, Fig. 4A
Experimental: as §1, §2, §3, §4, §5, §6

Sa.ClpP [6] = target: T1, Sa.ClpP; experiment: Thermal shift assay (differential scanning fluorimetry); type: binding; conditions: S. aureus ClpP 5 µM, ligand 200 µM, HEPES 100 mM pH 7, NaCl 150 mM, sypro orange 5x, 30-90 °C in 0.5 °C increments; mean ± SD of duplicates of at least two independent experiments
From the text: All concentrations are given as final concentrations. […]
real-time qPCR (Bio-Rad CF X96).
SD of duplicates of at least two independent experiments.
equilibrated Superdex 200 Increase 10/300 GL column (Cytiva). […]

[7] = FITC-casein fluorescence with/without Ec.ClpP (false-positive control); conditions: 200 µM, with vs without Ec.ClpP, 24 h at 37 °C, Fig. S2
Experimental: as §7
Protein purification and isolation […]
expressed in E. coli C41 (DE3) cells. A single colony was incubated overnight in 2xYT media containing ampicillin (0.1 mg/mL) at 37 °C. Subsequently 10 mL of the overnight inoculum was […]
applied to a Ni-NTA affinity column (GE Healthcare). The column was washed with an increasing […]
Protein containing fraction
10 mM MgCl2, glycerol 10 % (v/v)). The pure protein sample was obtained after size exclusion […]
0.5 mM EDTA, 100 mM KCl, 10 % glycerol).
After 18 hours of growth at 25 °C, cells […]
mM Tris-HCl, 1 mM EDTA, pH 8).
Here, the protein was eluted with an isocratic gradient of buffer containing 50 mM biotin. Protein was concentrated and buffer […]
stocks were stored in storage buffer at -20 °C. For long term storage, samples were stored at -80 […]
FITC casein degradation screen
as §8
samples is subtracted from all samples.

ClpP = conditions: in words, through another mechanism; cited from earlier work
Experimental: Modulation of ClpP was assessed using a biochemical assay monitoring the enzymatic function of the protease based on previously reported successes for the identification of allosteric activators of ClpP.[9]

Sa.ClpP [8] = target: T1, Sa.ClpP; experiment: Gel filtration (SEC) of ClpP oligomeric state; set-up: species or system S. aureus; conditions: Sa.ClpP 1 mg/mL, ligand 200 µM, destabilizing buffer Tris-HCl 100 mM pH 7.6, 100 mM KCl, overnight at 32 °C; Superdex 200

T1 sequence (Q2G036 whole entry): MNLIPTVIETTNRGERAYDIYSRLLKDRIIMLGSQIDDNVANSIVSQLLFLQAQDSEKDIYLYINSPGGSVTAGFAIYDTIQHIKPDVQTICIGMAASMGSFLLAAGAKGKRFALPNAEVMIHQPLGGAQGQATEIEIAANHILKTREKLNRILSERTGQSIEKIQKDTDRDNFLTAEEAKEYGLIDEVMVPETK

CC[C@H](C)[C@@H]1NC(=O)CNC(=O)[C@@H](NC(C)=O)CSCC(=O)CSC[C@@H](C(N)=O)NC(=O)CNC(=O)[C@H](Cc2ccccc2)NC(=O)CNC1=O [P4-B]
EC50 (Sa.ClpP [1]): > 100 µM
Sa.ClpP-dependent Sa.FtsZ digestion (Sa.ClpP [2]): also induced the digestion of FtsZ, yet less efficiently
Ec.ClpP-dependent beta-casein digestion (Ec.ClpP [3]): control of Ec.ClpP function was confirmed by SDS-PAGE analysis of beta-casein digestion
increase in fluorescence intensity / enzymatic activation of Ec.ClpP (FITC-casein) (Ec.ClpP [4]): significant increase of fluorescence intensity over the DMSO-treated sample
activation of Sa.ClpP (beta-casein digestion) (Sa.ClpP [5]): able to activate the enzymatic function of Sa.ClpP
apparent increase in melting temperature of Sa.ClpP (Sa.ClpP [6]): 0.6 ± 0.2 °C
fluorescence signal in presence or absence of Ec.ClpP (false-positive check) [7]: did not exhibit this behaviour

CC(C)C[C@H](NC(=O)[C@H](Cc1ccccc1)NC(=O)c1cnccn1)B(O)O [bortezomib]
effect on enzymatic function of ClpP homologues (ClpP): able to increase enzymatic function of ClpP homologues

CCCC/C=C/C(=O)N[C@@H](Cc1cc(F)cc(F)c1)C(=O)OC [compound 2, reference compound]
Sa.ClpP-dependent Sa.FtsZ digestion (Sa.ClpP [2]): activated Sa.ClpP, and FtsZ was digested
stabilization/retention of tetradecameric Sa.ClpP (Sa.ClpP [8]): able to retain the tetradecamer in Tris-HCl; also recorded: able to rescue and stabilize the tetradecameric structure of Sa.ClpP
